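Interpolation was linear, between the two tested concentrations surrounding the appropriate level; five concentrations were tested over 48 hours in 96-well plates. GI50 is the concentration that inhibits growth by half. TGI is the concentration that stops growth completely.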
How the values were obtained:
Test in all cases: NCI-60 cell line screen, 48 h
HCC-2998 colon = system: HCC-2998 colon
TK-10 renal = system: TK-10 renal
UACC-257 melanoma = system: UACC-257 melanoma
CCRF-CEM leukemia = system: CCRF-CEM leukemia
HOP-62 NSCLC = system: HOP-62 NSCLC
SNB-19 CNS = system: SNB-19 CNS
RXF 393 renal = system: RXF 393 renal
T-47D breast = system: T-47D breast
NCI-H226 lung = system: NCI-H226 lung
M14 melanoma = system: M14 melanoma
SF-295 CNS = system: SF-295 CNS
NCI-H23 lung = system: NCI-H23 lung
MDA-MB-231 breast = system: MDA-MB-231 breast
A549 NSCLC = system: A549 NSCLC
COLO 205 colon = system: COLO 205 colon
786-0 renal = system: 786-0 renal
UO-31 renal = system: UO-31 renal
KM12 colon = system: KM12 colon
UACC-62 melanoma = system: UACC-62 melanoma
HOP-92 NSCLC = system: HOP-92 NSCLC
HS 578T breast = system: HS 578T breast
OVCAR-8 ovarian = system: OVCAR-8 ovarian
SK-MEL-2 melanoma = system: SK-MEL-2 melanoma
NCI-H460 lung = system: NCI-H460 lung
SW-620 colon = system: SW-620 colon
HT29 colon = system: HT29 colon
K-562 leukemia = system: K-562 leukemia
BT-549 breast = system: BT-549 breast
LOX IMVI melanoma = system: LOX IMVI melanoma
SF-268 CNS = system: SF-268 CNS

CC1(C)N=C(N)N=C(N)N1c1ccc(Cl)c(Cl)c1
GI50 (HCC-2998 colon): 0.508 µM
TGI (HCC-2998 colon): > 40.7 µM
TGI (TK-10 renal): > 100 µM
GI50 (UACC-257 melanoma): > 41.6 µM
TGI (UACC-257 melanoma): > 100 µM
GI50 (CCRF-CEM leukemia): 3.39 µM
TGI (CCRF-CEM leukemia): > 52.3 µM
GI50 (HOP-62 NSCLC): 0.533 µM
TGI (HOP-62 NSCLC): > 100 µM
GI50 (SNB-19 CNS): 1 µM
TGI (SNB-19 CNS): > 100 µM
GI50 (RXF 393 renal): 29.1 µM
TGI (RXF 393 renal): > 100 µM
GI50 (T-47D breast): > 45.8 µM
TGI (T-47D breast): > 100 µM
TGI (NCI-H226 lung): > 100 µM
GI50 (M14 melanoma): 0.441 µM
TGI (M14 melanoma): > 100 µM
GI50 (SF-295 CNS): 0.304 µM
GI50 (NCI-H23 lung): 0.453 µM
TGI (NCI-H23 lung): > 100 µM
GI50 (MDA-MB-231 breast): > 100 µM
TGI (MDA-MB-231 breast): > 100 µM
GI50 (A549 NSCLC): 0.152 µM
TGI (A549 NSCLC): > 100 µM
GI50 (COLO 205 colon): 3.56 µM
TGI (COLO 205 colon): > 100 µM
GI50 (786-0 renal): 0.072 µM
TGI (786-0 renal): > 100 µM
GI50 (UO-31 renal): 13.5 µM
TGI (UO-31 renal): > 100 µM
GI50 (KM12 colon): 0.648 µM
TGI (KM12 colon): > 100 µM
GI50 (UACC-62 melanoma): 0.612 µM
TGI (UACC-62 melanoma): > 100 µM
GI50 (HOP-92 NSCLC): 47.1 µM
TGI (HOP-92 NSCLC): > 100 µM
GI50 (HS 578T breast): > 27.3 µM
TGI (HS 578T breast): > 100 µM
GI50 (OVCAR-8 ovarian): 0.202 µM
TGI (OVCAR-8 ovarian): > 100 µM
GI50 (SK-MEL-2 melanoma): > 100 µM
TGI (SK-MEL-2 melanoma): > 100 µM
GI50 (NCI-H460 lung): 0.0919 µM
TGI (NCI-H460 lung): > 100 µM
GI50 (SW-620 colon): 0.0966 µM
TGI (SW-620 colon): > 100 µM
GI50 (HT29 colon): 0.1 µM
TGI (HT29 colon): > 100 µM
GI50 (K-562 leukemia): 0.0636 µM
TGI (K-562 leukemia): > 100 µM
GI50 (BT-549 breast): 6.66 µM
TGI (BT-549 breast): > 100 µM
GI50 (LOX IMVI melanoma): 0.0879 µM
TGI (LOX IMVI melanoma): > 100 µM
GI50 (SF-268 CNS): 0.0566 µM
